Non-standard residues stand in square brackets, D forms with d. No end group written: not given here. sY = N[C@@H](Cc1ccc(OS(=O)(=O)O)cc1)C(=O)O
Assays:
[1] = system: Agrobacterium tumefaciens strain GV3101; experiment: Growth of Agrobacterium tumefaciens culture (OD 600); assay type: cell-based; details: 10.0%, 2.0%, 0.40%, 0.08%, 0.02%
Procedure: Agrobacterium tumefaciens strain GV3101 was inoculated into Luria broth medium (LB) and grown for 20 hours. Initially the optical density (OD) of the culture was measured at a wavelength of 600 nm using a spectrophotometer and normalized to a low starting density. The cultures were then divided equally and treated with similar proportions of thionins that are representative of mixtures used to treat citrus trees. The ratios of Cs.thionin (SEQ ID NO: 651), As.thionin (SEQ ID NO: 652) and Mt.thionin (SEQ ID NO: 653) used were 10.0%, 2.0%, 0.40%, 0.08%, and 0.02% and were prepared to match the 20 mL total volume of filtrate of each of the thionin mixtures that is used as a treatment per tree. Each thionin mixture was also compared to control mixtures containing only: filtrate, minimal media (LB), or a tetracycline (Tet) antibiotic (10 μg/mL per culture). Each bar represents a combined OD measure of 3 replicates. After incubation with the thionin and antibiotic mixtures, the optical density (OD 600) was measured again to determine if growth of the Agrobacterium cultures was reduced or inhibited.

soybean [2] = experiment: Foliar application to soybean, field yield trials; assay type: in vivo; details: foliar at R2, AG2836, 7 US Midwest locations
soybean [3] = experiment: Foliar application to soybean, field yield trials; assay type: in vivo; details: for Average Bu/Ac Increase compared to Control Variety 1 and 2 / Average Total Yield Bu/Ac Variety 1 and 2 / Average Total Yield Bu/Ac Variety 2: foliar at R2, 7 US Midwest locations; for Average Total Yield Bu/Ac Variety 2: AG3536
[4] = system: reactive oxygen species (ROS) production in soybean leaf tissue; experiment: ROS activity assay in soybean leaf tissue (luminol/horseradish peroxidase, RLU); assay type: cell-based; details: Table 33; 100 nM polypeptide; RLU relative to native Bt.4Q7Flg22 = 100
[5] = system: Pseudomonas syringae pv. actinidiae (PSA-V); experiment: PSA-V leaf spot in potted kiwi plants; assay type: in vivo
[6] = system: reactive oxygen species (ROS) production in corn tissue; experiment: ROS activity assay in corn tissue (luminol/horseradish peroxidase, RLU); details: Table 33; 5 nM polypeptide; RLU relative to native Bt.4Q7Flg22 = 100
[7] = system: reactive oxygen species (ROS) production in Kiwi 'Hayward' leaf petioles; experiment: ROS activity assay in kiwi leaf petioles; assay type: cell-based, Actinidiae deliciosa; details: 100 nM peptide
Procedure: To test the sensitivity of kiwi leaves to 22-amino acid fragments of flagellin, 1 mm slices were cut through Actinidiae deliciosa Kiwi ‘Hayward’ leaf petioles and floated in 150 μL of water in a 96-well plate, with one slice per well. […] In two independent experiments, a total of 6 kiwi leaf petiole samples were treated with each Flg22 polypeptide in Table 94. The average total RLU and standard error of the means (SEM) was calculated for each treatment. A two-tailed T-test was used to determine significance at the 90% confidence level (P<0.1) between treatments. Relative ROS production was determined for each polypeptide in comparison to total RLUs for the 100 nM Bt.4Q7Flg22 control.

corn [8] = assay type: in vivo
soybean [9] = experiment: Foliar application to soybean in growth room, plant height (non-stress, heat and water deficit stress); assay type: in vivo
Procedure: Ec.Flg22 (SEQ ID NO: 527) was applied to soybean (Beck's 297NR).
Plant height (cm) was measured just prior to the foliar application delivered at 3 weeks and then again 2 weeks later when the plants were 5-weeks-old. Two replicate trials were conducted using 18 plants per trial.
Soybean plants were grown as described in Example 6. The At.PSKα polypeptide (SEQ ID NO: 598) was applied as a foliar spray to the plants at the V1-V4 stage. Soybean plants treated with foliar applications of At.PSKα and control plants treated with water and surfactant alone were then grown in conditions described in Examples 7-9 that produced a non-stress and stress (heat and water deficit) environments. Table 37 describes the percentage change or increase in height reported for soybean plants treated with At.PSKα as a foliar spray at the V1-V4 growth stage.
RHPP bioactive priming polypeptide (SEQ ID NO: 600) was also applied as foliar treatment to R1 stage hybrid soybean (Beck's 297R4) with 0.1% (v/v) non-ionic surfactant ([…] SURFACE) using a spray bottle delivering approximately 1.2 ml/plant. This experiment was performed to look at the effects of RHPP on plant growth and was conducted using a total of 18 plants per treatment group. […] R1 stage soybean plants were treated with nothing (non-treated control), […] SURFACE surfactant applied at a concentration of 0.1% (v/v) or the RHPP polypeptide (300 nM) applied in combination with […] SURFACE surfactant (0.1% v/v). Height for each plant was recorded at the time of spray and again at 16 days post foliar application and average growth parameters were compared between foliar treatments (Table 39).

corn [10] = experiment: Foliar application to corn in growth room, plant height (non-stress, heat and water deficit stress)
[11] = system: Candidatus Liberibacter asiaticus; details: in vivo

Cs.thionin: thionin polypeptide, applied as filtrate (RVCQSQSHHFHGACFSHHNCAFVCRNEGFSGGKCRGVRRRCFCSKLC; applied as filtrate; listed as Citrus sinensis)
growth of Agrobacterium cultures vs filtrate, LB or Tet controls [1]: dose dependent response and decreased growth

Gm RHPP (GGIRAAPTGNER; Glycine max)
Average Total Yield Bu/Ac Variety 1 (soybean [2]; use rate 4.0 Fl. oz/Ac): 58.61 Bu/Ac
Average Total Yield Bu/Ac Variety 1 (soybean [2]; use rate 8.0 Fl. oz/Ac): 59.47 Bu/Ac
Average Bu/Ac Increase compared to Control Variety 1 and 2 (soybean [3]; use rate 4.0 Fl. oz/Ac): +1.26 Bu/Ac
Average Total Yield Bu/Ac Variety 1 and 2 (soybean [3]; use rate 4.0 Fl. oz/Ac): 61.83 Bu/Ac
Average Bu/Ac Increase compared to Control Variety 1 and 2 (soybean [3]; use rate 8.0 Fl. oz/Ac): +0.51 Bu/Ac
Average Total Yield Bu/Ac Variety 1 and 2 (soybean [3]; use rate 8.0 Fl. oz/Ac): 61.08 Bu/Ac
Average Total Yield Bu/Ac Variety 2 (soybean [3]; use rate 4.0 Fl. oz/Ac): 66.35 Bu/Ac
Average Total Yield Bu/Ac Variety 2 (soybean [3]; use rate 8.0 Fl. oz/Ac): 62.46 Bu/Ac

Mt.thionin: thionin polypeptide, applied as filtrate (RTCESQSHRFKGPCSRDSNCATVCLTEGFSGGDCRGFRRRCRCTRPCVFDEK; applied as filtrate)
growth of Agrobacterium cultures vs filtrate, LB or Tet controls [1]: dose dependent response and decreased growth

TRLSSGLKINSAKDDAAGLQIA (listed as Pseudomonas syringae) [Flg22-PSA, Flg22 from Pseudomonas syringae pv. actinidiae]
Avg. Activity (%) Soybean (297 R4) 100 nM polypeptide [4]: 113.1%
PSA-V leaf spot symptoms vs untreated control ([5]; 6, 16 and 23 DAI): significantly reduced PSA-V leaf spot symptoms
less leaf spot compared to untreated control ([5]; combination with Flg22-PSA pre-treatment (partner not given), 29 DAI): 14.3%
Avg. Activity (%) Corn (5828 YX) 5 nM polypeptide [6]: 154.4%
Average Total Relative Light Units (RLUs); SEM in parentheses ([7]; Kiwi 'Hayward' leaf petiole slices, 40 minutes time course): 124,550 RLU
ROS production relative to Bt4Q7Flg22 (%) ([7]; Kiwi 'Hayward' leaf petioles): 262%

Tyr(SO3H)-I-Tyr(SO3H)-TQ ([sY]I[sY]TQ; listed as Arabidopsis thaliana) [At.PSKα, Phytosulfokine alpha, Arabidopsis thaliana]
Bu/Ac Foliar Corn (yield increase) (corn [8]; 1 μM foliar spray with surfactant at V5-V8, corn hybrid 5140RR, vs water control): 3.0 Bu/Ac
yield increase (corn [8]; foliar 1 μM, V5-V8, hybrid 5140RR, one location): 3 Bu/Ac
increase in height vs control (soybean [9]; foliar at V1-V4, non-stress environment): 3.5%
increase in height vs control (soybean [9]; foliar at V1-V4, stress (heat and water deficit) environment): 4.3%
Percentage (%) change in Height in Stress Environment Soybean with At.PSKα over control (soybean [9]; foliar spray at V1-V4, heat and water deficit stress): 4.3%
Percentage (%) change in Height in Non-Stress Environment Soybean with At.PSKα over control (soybean [9]; foliar spray at V1-V4, non-stress): 3.5%
Plant Height Normalized as a percentage of control height Non-stress (corn [10]; 5 weeks, control surfactant 0.01% v/v, HpaG-like 1 μM, At.PSKα 100 nM): 98.2%
Plant Height Normalized as a percentage of control height Stress (corn [10]; 5 weeks, heat and water deficit stress, control surfactant 0.01% v/v, HpaG-like 1 μM, At.PSKα 100 nM): 107.8%
growth phenotype vs control (corn [10]; foliar (HpaG-like 1 μM, PSKα), heat and water deficit stress): improved growth phenotype
Height (cm) after stress 5 weeks (corn [10]; heat and water deficit stress, HpaG-like 1 μM, At.PSKα 100 nM foliar): 54.88 cm
Height (cm) after non-stress 5 weeks (corn [10]; non-stress growth room, HpaG-like 1 μM, At.PSKα 100 nM foliar): 58.62 cm
Bu/Ac Foliar Soybean (yield increase) (soybean [3]; 1 μM foliar spray with surfactant at V1-V4, soybean hybrid 375 NR, vs water control): 0.8 Bu/Ac
yield increase (soybean [3]; foliar 1 μM, V1-V4, hybrid 375 NR, one location): 0.8 Bu/Ac

thionin tagged: thionin polypeptide comprising a phloem localization sequence (printed SEQ ID NO: 650) (RTCESQSHRFKGPCSRDSNCATVCLTEGFSGGDCRGFRRRCRCTRPCVFDEK)
Ct values vs control trees [11]: higher average Ct values
average Ct value vs un-tagged thionin [11]: higher average Ct value at T56

— patent publication US12268727B2, “Bioactive polypeptides for improvements in plant protection, growth and productivity” (priority 2017, dated 2025)
